{
  "source": "patent US20210017231A1",
  "about": "“ATP1A1-TARGETING POLYPEPTIDE AND USE THEREOF” (SUN YAT-SEN UNVIERSITY CANCER CENTER (SYSUCC), priority 2017, published 2021)",
  "key": {"[1]": {"test_system": "breast cancer MDA-MB-231 cells", "assay": "Flow cytometry binding of fluorescent peptide to cells", "assay_type": "cell-based, human", "conditions": "10 μM, on ice 20 min, FIG. 1C", "experimental": "The binding of FITC-S3 (SEQ ID NO:3) fluorescent peptide to breast cancer MDA-MB-231 cells was detected by flow cytometry. The inventors first synthesized a fluorescent peptide in which the […] and Con peptide were conjugated to a fluorescent dye FITC, and then incubated FITC-S3 (SEQ ID NO:3) fluorescent peptide with the cells, and finally detected the binding thereof by flow cytometry. The particular experimental procedure was as follows:\n1) digesting cells with trypsin, counting, and adjusting the concentration thereof to be 1.0×10^6 cells/tube, resuspending the cells with 100 μl serum-free 1640 medium;\n2) adding FITC-C or […] in PBS (10 μM), and incubating the cells on ice for binding for 20 min;\n3) washing three times with 0.1% PBST, 1 ml/time, and centrifuging at 400 g for 5 min;\n4) resuspending the cells with 500 μl PBS; and\n5) detecting by flow cytometry."}, "[2]": {"test_system": "breast cancer MDA-MB-231 cells", "assay": "Polypeptide blocking experiment (ELISA on cells)", "assay_type": "cell-based, human", "conditions": "5, 10, 20 μg/μl S3 polypeptide", "experimental": "An enzyme-linked immunosorbent assay was used to detect the binding of S3 phage to breast cancer MDA-MB-231 cells, and then to detect whether […] could block the binding of […] to breast cancer MDA-MB-231 cells. The specific procedure was as follows:\n2) digesting cells with trypsin, counting, and uniformly plating the cells in a 96-well plate, 1×10^4/well;\n3) in the blocking experiment, adding 5, 10, 20 μg/μl S3 polypeptide and incubating at 37° C. for 1 h;\n4) in the targeting experiment, adding phages in a concentration gradient of 1.0×10^9, 2.0×10^9, 4.0×10^9, 8.0×10^9, […] pfu/well, incubating at 37° C. for 2 h for binding; in the blocking experiment, adding 20 μg/μl of Biotin-S3 polypeptide;\n5) discarding the cell incubation solution;\n6) fixing the cells with 4% paraformaldehyde for 10 min;\n7) washing five times with 0.1% PBST, 270 μl/well;\n8) destroying the membranes with 0.1% Triton, and washing once with PBST, 270 μl/well;\n9) blocking with 5% BSA for 30 min;\n10) adding 1:1000 diluted anti-M13 conjucted HRP by 50 μl/well, and incubating at room temperature for 1 h;\n11) washing five times with 0.1% PBST;\n12) developing color with a TMB kit; and 13) reading at OD 450 nm by a microplate reader."}, "[3]": {"test_system": "human breast cancer MDA-MB-231 cells", "assay": "Confocal laser scanning microscopy (immunofluorescence) of biotin peptide binding to cells", "assay_type": "cell-based", "conditions": "MDA-MB-231 versus human normal breast MCF-10A cells", "from_the_text": "The binding of Biotin-C (Biotin-SEQ ID NO:2) and Biotin-S3 (Biotin-SEQ ID NO:1) polypeptide to human breast cancer MDA-MB-231 cells was detected by confocal laser scanning microscopy. Meanwhile, the inventors compared it with the binding of the above polypeptides to human normal breast MCF-10A cells. The particular experimental procedure was as follows:\n1) digesting cells with trypsin and plating the cells in a 24-well plate provided with a slide, 1×10^5/well;\n2) adding Biotin-C (Biotin-SEQ ID NO:2), Biotin-S3 (Biotin-SEQ ID NO:1) polypeptide to the cells, 200 μg/well, and incubating at 37° C. for 2 h;\n3) discarding the cell incubation solution;\n4) fixing the cells with 4% paraformaldehyde for 10 min;\n5) washing five times with 0.1% PBST, 500 μl/well, and washing off unbound polypeptides;\n6) destroying the membranes with 0.1% Triton, and washing once with PBST, 500 μl/well;\n7) blocking with 5% BSA, 30 min;\n8) adding anti-Biotin Streptavidin (1:1000) into the wells, and incubating at 4° C. for 12 h;\n9) washing three times with 0.1% PBST, 5 min/time;\n10) adding anti-Streptavidin conjugated FITC (1:1000) into the wells, and incubating at room temperature for 45 min;\n11) washing three times with 0.1% PBST, 5 min/time;\n12) staining cell membranes with WGA (1:1000), and incubating at room temperature for 10 min;\n13) washing three times with 0.1% PBST, 5 min/time; […]"}, "[4]": {"test_system": "breast cancer MDA-MB-231 tumors", "assay": "Infrared fluorescent molecular imaging of breast cancer tumor-bearing mice", "assay_type": "in vivo", "from_the_text": "Tumor-bearing mice were used for the infrared fluorescence molecular imaging experiment to detect the distribution of Cy5-S3 (Cy5-SEQ ID NO:1) fluorescent peptide in various organs and tumors of the tumor-bearing mice. The experimental procedure of the imaging experiment of small living animals was as follows: 1) taking out nine male NOD SCID mice of 4-week old; 2) digesting breast cancer MDA-MB-231 cells with trypsin, counting, and adjusting the concentration to be 5.0×10^7 cells/ml, resuspending the cells with 20% Matrigel DMEM, and injecting with 200 μl/mouse; 3) observing tumor formation for 1-2 weeks, measuring the sizes of the tumors, and randomizing the mice into three groups according to the sizes of the tumors, i.e. […] 4) dissolving 300 μg fluorescent peptides in 200 μl PBS, injecting the fluorescent peptides into the tail veins of the mice, and dynamically detecting the distribution of the fluorescent peptides in various organs and tumors of the nude mice by using a small living animal imaging instrument. 5) taking out every organ and tumor, homogenizing, measuring the fluorescence intensity of each organ and tumor, and making statistical analysis."}, "[5]": {"test_system": "esophageal cancer KYSE30 tumor", "assay": "Infrared fluorescent molecular imaging of esophageal cancer tumor-bearing mice", "assay_type": "in vivo", "conditions": "48 hours after tail vein injection, FIGS. 2D, 2E", "from_the_text": "(§1) According to the above procedure, the Cy5-S3 (Cy5-SEQ ID NO:1) fluorescent peptides were applied in esophageal cancer KYSE30 tumor-bearing and nasopharyngeal carcinoma CNE2 mouse models, in order to detect whether Cy5-S3 (Cy5-SEQ ID NO:1) fluorescent peptide can be imaged with infrared fluorescent molecular imaging in other tumors."}, "[6]": {"test_system": "nasopharyngeal carcinoma CNE2 tumor", "assay": "Infrared fluorescent molecular imaging of nasopharyngeal carcinoma mouse model", "assay_type": "in vivo, mice", "conditions": "48 hours after tail vein injection, FIG. 2F", "from_the_text": "as §1"}},
  "note": "Bridge positions count the residues as written; N and C are the ends. Primed or numbered codes have the meaning given here. Ends that are not written are not given here. FITC′ = fluorescein isothiocyanate label; Cy5 = Cy5 dye label",
  "data": [
    {"substance": "CSISSLTHC-GGGS-FITC (CSISSLTHCGGGS-{FITC′}; disulfide 1-9 (inferred)) [FITC-S3, S3 peptide conjugated to fluorescent dye FITC]", "values": [
      {"measurement": "binding ability to breast cancer MDA-MB-231 cells versus FITC-control fluorescent peptide", "setting": "[1]", "result": "stronger than that of FITC-control fluorescent peptide"}
    ]},
    {"substance": "CSISSLTHC [Peptide S3, ATP1A1-targeting polypeptide, SISSLTH motif with Cys at both terminals]", "values": [
      {"measurement": "blocking of the binding of Biotin-S3 polypeptide to breast cancer cells", "setting": "[2]; 20 μg/μl Biotin-S3, FIG. 1B", "result": "can block the binding"},
      {"measurement": "concentration dependence of the blocking effect", "setting": "[2]; FIG. 1B", "result": "concentration-dependent"},
      {"measurement": "targeting of breast cancer cells compared to normal breast MCF-10A cells", "setting": "[3]", "result": "obvious property of targeting breast cancer cells"}
    ]},
    {"substance": "Cy5-CSISSLTHC (disulfide 1-9 (inferred)) [Cy5-S3, Cy5 fluorescent S3 peptide]", "values": [
      {"measurement": "content of fluorescent peptide in unit weight of the tumor versus other organs", "setting": "[4]; 48 hours after tail vein injection, FIG. 2C", "result": "significantly higher than that in other organs"},
      {"measurement": "enrichment in tumor by tissue analysis of dissected mice", "setting": "[4]; mouse, in vivo", "result": "significantly enriched in the tumor"},
      {"measurement": "enrichment in tumors by infrared imaging of the living mice", "setting": "[4]; mouse, in vivo", "result": "obviously enriched in the tumors"},
      {"measurement": "infrared fluorescent molecular imaging of esophageal cancer", "setting": "[5]", "result": "can also be used for the infrared fluorescent molecular imaging"},
      {"measurement": "infrared fluorescent molecular imaging of nasopharyngeal carcinoma", "setting": "[6]", "result": "can also be used for the infrared fluorescent molecular imaging"}
    ]}
  ]
}
